Like-named read-outs stand apart in the source and are kept apart here.
Experiments:
[1] = system: mitochondria from cells over-expressing Bcl-xL (TABX2S cells); test: JC-1 staining of isolated mitochondrial fractions; type: biochemical, murine; details: 2 μg/ml
Experimental: Briefly, at 15 and 30 minutes, 5×10^5 cells were washed, trypsinized and resuspended in 1 ml of growth media. Each sample was stained with 10 μg/ml of JC-1 prepared in DMSO. After 10 minutes of incubation at 37° C., cells were transferred to ice and analysis was performed using a FACScan flow cytometer (Becton Dickinson). The excitation wavelength was 488 nm whereas measurement was performed at 520 and 585 nm for green and red fluorescence, respectively. Green and red fluorescence were measured on FL1 and FL2 channels, respectively. A minimum of 10,000 cells per sample were analyzed. Comparisons were made based on the results of at least three experiments.
Isolated mitochondria were loaded with JC-1 prior to treatment, and mitochondrial labeling was determined using FACS. […] Antimycin A-treated mitochondria with high levels of Bcl-xL had lower levels of JC-1 staining than parallel samples treated with CCCP. Uncoupled mitochondria still retain a significant Donnan potential because of trapped anionic species and it is likely that antimycin-induced PT and/or swelling of mitochondria led to a further reduction of this residual potential.
As observed for the parent compound, antimycin A3, mitochondria with normal levels of Bcl-xL expression were not affected by the 2-methoxy analog.

[2] = system: TABX2S cells (over-expressing Bcl-xL); test: in vitro
Text: (§1) Briefly, a DNA fragment encoding the full-length mouse Bcl-xL cDNA was isolated from the plasmid pBS-BCL-xL (Tzung et al., Am. J. Path. 150:1985-1995 (1997), incorporated herein by reference in its entirety) by digestion with the restriction endonuclease EcoRI. This EcoRI fragment was cloned into the EcoRI site of the mammalian expression vector pSFFV (Fuhlbrigge et al., Proc. Nat. Acad. Sci. USA 85:5649-5653 (1988)) in both sense and antisense orientations, to form expression plasmids pSFFV-Bc/-xL-WT(sense) or pSFFV-Bc/-xL(antisense), respectively. The tumorigenic murine hepatocyte cell line TAMH was transfected by lipofection (Lipofectamine, Life Technologies, Rockville, Md., according to the manufacturer's recommendations) with the plasmids pSFFV-neo (the control), pSFFV-Bc/-xL-WT(sense) or pSFFV-Bc/-xL(antisense). Characterization of and culture conditions for the cell lines have been previously published (Wu et al., Proc. Nat. Acad. Sci. USA 91:674-78 (1994); Wu et al., Cancer Res. 54:5964-5973 (1994)). Transfectants were selected for the acquisition of neomycin resistance by growing cells in the presence of 750 μg/ml of G418. Bulk transfectants were cloned by limiting dilution and individual clones were screened by immunoblot analysis to determine the level of Bcl-xL, protein expression as described below.
(§2) Selected transfectants were then tested for whole cell sensitivity to several apoptotic agents. Transfected cells were cultured to reach approximately 80% confluency prior to plating an equal number of cells from selected clones on 12-well tissue culture plates. The transplanted cells were treated with the following apoptotic agents: 5 μM doxorubicin for 48 hours; 5 μM cisplatin for 48 hours; or with 200 U/ml tumor necrosis factor (TNF) plus 1 μg/ml actinomycin D for 18 hours. Cell viability was determined by trypan blue dye exclusion. The percentage of viable cells was calculated by the number of viable cells (treated with a particular apoptogenic agent) divided by the number in the control group (untreated).
(§3) TABX2S cells and TABX1A cells were also examined for the effects of various mitochondrial inhibitors. […] Azide was diluted from an aqueous stock solution.

Cellular O2 consumption = type: cell-based; details: compared to antimycin A3
[3] = target: T1, recombinant Bcl-2 (Bcl-2ΔC22) (Homo sapiens, UniProt P10415); test: Antimycin A3 fluorescence binding and competitive displacement assay; details: antimycin A3 2 μM, competitor 2 μM, Bcl-2 3 μM
T1 construct: poly-His (N); made in house
T1 sequence (P10415 1-217 limits assumed, stated change not applied): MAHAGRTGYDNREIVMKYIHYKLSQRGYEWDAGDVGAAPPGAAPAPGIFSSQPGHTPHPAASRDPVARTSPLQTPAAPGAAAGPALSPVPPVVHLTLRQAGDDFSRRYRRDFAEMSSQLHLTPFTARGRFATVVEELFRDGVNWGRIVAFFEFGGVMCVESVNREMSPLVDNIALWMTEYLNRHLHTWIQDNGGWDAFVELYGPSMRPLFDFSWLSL
Experimental: In this assay, 0 to 5 μM antimycin A3 (Sigma Chemical Co., St. Louis, Mo.) was added to a physiological buffer (50 mM Tris-HCl pH 8.0, 0.2 M NaCl, 2 mM EDTA, 0.5% v/v glycerol) containing recombinant Bcl-2 or Bcl-xL protein under conditions that permitted antimycin A3 to bind to the BH3-binding domain of Bcl-2 or Bcl-xL, (22.5° C. on a Hitachi F-2500 fluorescence spectrofluorimeter equipped with a thermostatted cell holder). […] The excitation wavelength was 335 nm, and the maximum emission wavelength for antimycin A3 was 428 nm with a slit width of 10 nm. The samples were mixed in a quartz cuvette and checked for inner filter effect over the range of antimycin A3 for this study. […]
Recombinant human Bcl-2ΔC22 (a recombinant human […] lacking the C-terminal 22-amino acid residue membrane anchor sequence) and mouse Bcl-xLΔC20 (a murine Bcl-xL lacking the C terminal 20-amino acid residue membrane anchor sequence) fused with poly-His at the N-terminus were chromatographically purified to homogeneity. The concentrations of antimycin A3 and stock solutions of recombinant proteins were quantitated using an extinction coefficient of 7.24/mM/cm at 320 nm and by Bradford assay, respectively. […] For peptide displacement experiments, a solution of 2 μM antimycin A3 and 3 μM Bcl-2 was allowed to reach binding equilibrium at 4° C. prior to fluorescence measurements. […]

Bcl-xL(ΔC) WT = target: T2, Bcl-xL(ΔC) WT (Homo sapiens, UniProt Q07817); test: Pore assay, calcein release from large unilamellar vesicles; type: biochemical
T2 construct: inferred from pET22b(+) NdeI/XhoI cloning and nickel-NTA purification) (C); made in house; host or cells: Escherichia coli BL21(DE3) carrying pUB520
T2 sequence (Q07817 1-211 limits assumed, stated change not applied): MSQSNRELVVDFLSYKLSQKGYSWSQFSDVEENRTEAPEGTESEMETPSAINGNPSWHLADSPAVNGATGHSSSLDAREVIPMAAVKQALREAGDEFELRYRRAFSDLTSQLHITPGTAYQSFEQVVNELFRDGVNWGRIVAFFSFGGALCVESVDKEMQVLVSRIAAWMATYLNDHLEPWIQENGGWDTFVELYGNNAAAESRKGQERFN
Experimental: Large unilamellar vesicles composed of 60% dioleoylphophatidylcholine and 40% dioleoylphosphatidylglycerol were prepared by the extrusion method of Mayer et al., supra. Lipid stocks, in chloroform, were mixed and dried under a stream of nitrogen gas. The lipid was resuspended by vortexing for 30 min in a solution of 40 mM calcein (Molecular Probes), 25 mM KCl, and 10 mM KOAc, pH 5.0. After 10 freeze-thaw cycles, the lipid suspension was extruded through two 0.1 μm pore diameter Nucleopore filters. Non-entrapped dye was removed by passage over a Sephadex G10 column (Amersham Biosciences). Lipid concentration was measured using the ammonium ferrothiocyanate method (Stewart, Anal. Biochem. 104:10-14, 1980).
For pore assays, recombinant truncated Bcl-2 family protein or mutant protein (Bcl-xL(ΔC)) (500 nM) was added to large unilamellar vesicles (60 μM lipid concentration) in 100 mM KCl, 10 mM KOAc, pH 5.0, and fluorescence measured (490 nm excitation, 520 nm emission) with a Fluoromax-3 spectrophotometer. Peptides of the BH3 domain were incubated with the Bcl-xL(ΔC) 5 min prior to mixing with liposomes. AA1 was added to liposomes 1 min before adding the Bcl-xL(ΔC) protein. Samples for kinetic assays were analyzed in a thermostatted cuvette at 37° C. with constant stirring. Dose responses were measured in black quartz microplates (Hellma) at room temperature. Calcein release was expressed as percentage of maximum release with detergent lysis (0.1% Triton X-100).

[4] = Cell viability by trypan blue dye exclusion; details: mouse
Text: as §1
as §2, with “(untreated). […]” for “(untreated).”

in vitro = details: mouse
Text: as §1, §2, §3

[5] = system: myeloma cell lines (RPMI-8226, U266, NCI-H929); type: cell-based, human
Experimental: Cell survival was assayed by exclusion of propidium iodide (PI) (10 mg/ml) by unfixed cells. Annexin V-FITC (Pharmingen) or 3,3′-dihexyloxacarbocyanine iodide (DiOC6(3)) (Molecular Probes) staining was analyzed together with PI to discriminate early apoptotic cells. Apoptotic cells were also measured as sub-G1 events among ethanol-fixed cells stained with […] PI. All cell samples were analyzed using a benchtop FACSCalibur® (Becton Dickinson, San Jose, Calif.) flow cytometer. Flow data were analyzed using MultiCycle AV software (Phoenix Flow Systems). For intracellular pH measurements, cell pellets were washed once and resuspended in 2 ml of HEPES-buffered medium (no phenol red and no serum). Carboxy-SNARF®-1 acetoxymethyl (AM) ester (Molecular Probes, 1 mM stock in DMSO, stored at −20° C.), a long wavelength fluorescent pH indicator, was added to a final concentration of 10 μM, and the cells were incubated for 30 min at 37° C. Following incubation with SNARF®-1 AM, cells were sedimented and the pellets were held on ice. Immediately before analysis, pellets were resuspended in Earle's balanced salt solution (experimental buffer) or high-[K^+] buffer containing nigericin (calibration samples).

SMILES: CCCC[C@H]1C(=O)OC(C)C(NC(=O)c2cccc(NC=O)c2OC)C(=O)O[C@@H](C)C1OC(=O)CC(C)C (some centres unmarked) [2-methoxy antimycin A3, antimycin A3 methyl ether]
- mitochondrial depolarization (JC-1) [1]: strongly depolarized
- cytotoxicity for cells that over-express Bcl-xL versus control cells ([2]; TABX2S vs TAMH.neo and TABX1A): selective cytotoxicity
- effect on cellular O2 consumption (Cellular O2 consumption): negligible effect
- displacement of antimycin A3 from Bcl-2 (antimycin A3 fluorescence) [3]: decreased exponentially

SMILES: CC(C)C(C(=O)O)N1C(=O)/C(=C\c2ccc(Br)cc2)SC1=S (centres unmarked) [BH3I-1]
- effect on Bcl-xL pore-forming activity (FIG. 3A) (Bcl-xL(ΔC) WT): no effect

SMILES: COc1cccc2c1C(=O)c1c(O)c3c(c(O)c1C2=O)C[C@@](O)(C(=O)CO)C[C@@H]3O[C@H]1C[C@H](N)[C@H](O)[C@H](C)O1 [doxorubicin]
- viability at 48 h, 5 µM [4]: 50%
- viability at 48 h, 5 µM ([4]; TABX1A cells (TAMH hepatocyte line with Bcl-xL antisense)): 20%
- viability at 5 µM (in vitro): 88%

SMILES: CC[C@H]1/C=C/C=C/C[C@@H](C)[C@H](O)[C@@](C)(O)C(=O)[C@@H](C)[C@H](O)[C@@H](C)C(=O)[C@@H](C)[C@H](O)[C@@H](C)/C=C/C(=O)O[C@@H]2[C@H](C)[C@H](CC1)O[C@]1(CC[C@H](C)[C@H](C[C@@H](C)O)O1)[C@H]2C [oligomycin]
- difference in sensitivity of TABX2S and TABX1A cell lines [2]: no significant differences
- cell killing ([5]; 2-10 mg/ml): Only H929 cells were killed

SMILES: CCCCC1C(=O)OC(C)C(NC(=O)c2cccc(NC=O)c2OCC(=O)c2ccccc2)C(=O)OC(C)C1OC(=O)CC(C)C (centres unmarked) [phenacyl ether antimycin A3]
- displacement of antimycin A3 from Bcl-2 (antimycin A3 fluorescence) [3]: did not displace

SMILES: C=C(C)[C@H]1Cc2c(ccc3c2O[C@@H]2COc4cc(OC)c(OC)cc4[C@@H]2C3=O)O1 [rotenone]
- difference in sensitivity of TABX2S and TABX1A cell lines [2]: no significant differences
- cell killing ([5]; 0.5-2.5 mg/ml): none of the myeloma cell lines were killed

SMILES: CC(C)[C@@H]1NC(=O)[C@H](C)OC(=O)[C@@H](C(C)C)NC(=O)[C@@H](C(C)C)OC(=O)[C@H](C(C)C)NC(=O)[C@H](C)OC(=O)[C@@H](C(C)C)NC(=O)[C@@H](C(C)C)OC(=O)[C@H](C(C)C)NC(=O)[C@H](C)OC(=O)[C@@H](C(C)C)NC(=O)[C@@H](C(C)C)OC1=O [valinomycin]
- difference in sensitivity of TABX2S and TABX1A cell lines [2]: no significant differences
